From patent publication US6228866A, “Condensed piperidine compound” (Ono Pharmaceutical Co., Ltd., priority 1997, dated 2001)

Molecular target: T1, i-NOS (Homo sapiens, UniProt P35228)
T1 construct: The supernatant was collected as a source of i-NOS; endogenous in cells; host or cells: A549 (human lung epithelial cell line), stimulated with LPS, TNF-alpha, IL-1beta and IFN-gamma; sonicated, 54,000 rpm supernatant
Assay: i-NOS Inhibition Test
Type: biochemical
Settings: i-NOS from supernatant of A549 cells stimulated with LPS, TNF-α, IL-1β, INF-γ; 14C-L-arginine substrate; 37° C., 10 minutes; pH 7.8
Description: The pharmacological activity of the compound of formula (I) according to the present invention on i-NOS was examined by the following test.
To human lung epithelial cell line of A549 were added 10 μg/ml of lipopolysaccharide (LPS), 10 ng/ml of tumor necrosis factor-α (TNF-α), 5 ng/ml of interleukin-1β (IL-1β), and 100 ng/ml of interferon-γ (INF-γ). Sixteen hours later the cells were ruptured by ultrasonication and centrifuged at 54,000 rpm. The supernatant was collected as a source of i-NOS.
i-NOS was made to act on ^14 C-labeled L-arginine as a substrate, and L-citrulline produced in the presence of the compound of the invention was determined to calculate the 50% inhibitory concentration of the test compound. More specifically, 10 μl of a 16.8 μM solution of L-[U-^14 C]arginine, 10 μl of the above-prepared i-NOS source, and 10 μl of varied amount of a test compound were added to 70 μl of a solution comprising 50 mM HEPES (N-2-hydroxyethylpiperazine-N'-2-ethanesulfonic acid) (pH 7.8), 1 mM DTT (dithiothreitol), 1 mM NADPH (reduced nicotinamide adenine dinucleotide phosphate), 0.1 mM BH4 (tetrahydrobiopterin), 10 μM FAD (flavin adenine dinucleotide), and 500 units/ml of CaM (calmodulin), and the solution was made to 100 μl. After incubation at 37° C. for 10 minutes, 0.225 ml of a reaction terminating buffer consisting of 100 mM HEPES (pH 5.1 to 5.5) and 10 mM EDTA (ethylenediaminetetraacetic acid) was added while cooling with ice to cease the enzymatic reaction. The reaction solution was passed through a column packed with 0.25 ml of Dowex 50WX-8 (Na^+ form) to remove unreacted L-arginine and the column was washed with 0.45 ml of the reaction terminating buffer to collect an effluent containing L-citrulline. The radioactivity of the effluent was measured with a liquid scintillation counter, which was taken as NOS activity, from which a 50% inhibition concentration of the test compound was obtained.

IC50 [nM]	Compound
90	C[C@H]1CC(=N)N[C@@H]2C[C@H]12 (relative stereo) [3 (a)]
180	C[C@@H]1CC(=N)N[C@H]2C[C@@H]12 [3 (f)]
220	C[C@H]1CC(=N)N[C@H]2[C@@H]1C2(C)C (relative stereo) [compound 1]
92	C[C@H]1[C@H]2NC(=N)C[C@H](C)[C@@H]12 (relative stereo) [2 (g)]
20	C[C@H]1CC(=N)N[C@@H]2[C@H](Cl)[C@@H]21 (relative stereo) [3 (c)]
57	C[C@H]1CC(=N)N[C@H]2[C@@H]1C2(Cl)Cl (relative stereo) [4 (a)]
130	C[C@@H]1CC(=N)N[C@@]2(C)C[C@@H]12 (relative stereo) [3 (i)]
21	C[C@H]1CC(=N)N[C@H]2[C@@H]1C2(Cl)Cl (single isomer, unassigned) [compound 4]
12	C[C@H]1CC(=N)N[C@@H]2[C@H](Cl)[C@@H]21 [compound 3]
47	C[C@@H]1CC(=N)N[C@@H]2C[C@H]12 (relative stereo) [3 (g)]
200	N=C1CC2(CCN1)CC2 [compound 7]
